# Key:
# [1] = test system: MM1S cells; assay: Cell viability assay (MTS assay), MM1S cells; assay type: cell-based, human; settings: 48 hours
# Method: In vitro synergy between COMPOUND 1 and bortezomib or melphalan was assessed using the median effect method of Chou and Talalay (30). Combination indices (CIs) were calculated separately for each combination. […] CIs between 0.9 and 1.1 were considered to indicate additive drug effects (31).
# [2] = test system: LAGκ-1B tumor; assay: Intramuscular LAGκ-1B tumor xenograft model (tumor volume); settings: for delay of tumor volume growth to 300 mm^3: oral 5 mg/kg daily; for delay of tumor volume at 220 mm^3 / Percentage T/C: oral 10 mg/kg twice weekly
# Method: Six- to 8-week-old male severe combined immunodeficient (SCID) mice were obtained from the Jackson Laboratory (Bar Harbor, Me.) and maintained in a specific pathogen-free area in our animal resources facility. All animal studies were conducted according to protocols approved by the Institutional Animal Care and Use Committee. Animals were anesthetized with ketamine, xylazine, and isoflurane prior to surgery and were euthanized when tumors reached 2 cm in diameter.
# Biopsy tissue was surgically implanted in the hind limbs of anesthetized SCID mice and passaged through succeeding generations (32).
# Myeloma tumors (LAGκ-1A or LAGκ-1B) were excised from an anesthetized donor mouse, sectioned into 20 to 40 mm^3 pieces, and surgically implanted into the left superficial gluteal muscle of anesthetized naive SCID mice. Recipient mice received weekly injections of anti-asialo GM1 rabbit serum (Wako Bioproducts, Richmond, Va.) to further suppress immune activity. Mice were blindly assigned to one of the experimental groups, and treatment was initiated 7 to 21 days after tumor implantation. COMPOUND 1 was administered via oral gavage daily (0.5-5.0 mg/kg) or twice weekly (5-10 mg/kg). COMPOUND 1 was also administered twice weekly (W, F) via either IV injection (0.5-3.0 mg/kg) or oral gavage (10 mg/kg), as specified. […] Bortezomib (0.5 mg/kg) was dispensed twice weekly (T, Th) via IV injection. Control treatment consisted of COMPOUND 1 diluent (3.2 mL 5% mannitol and 800 μL propylene glycol) alone.
# As a direct measurement of tumor growth, calipers were used to assess tumor volume weekly, and the formula for an ellipsoid volume was applied ( 4/3π×[width/2]^2×[length/2]).
# Percent inhibition of tumor growth is represented as the tumor volume of the test drug group over the tumor volume of the untreated group (T/C). The optimal value is the minimal T/C ratio that reflects the maximal tumor growth inhibition achieved. The criterion for efficacy for the T/C ratio is ≦42%, according to National Cancer Institute (NCI) standard criteria (44).
# Efficacy of drug therapy against tumors was standardized to the time (t) required for the untreated tumor to grow to a determined size based on the greatest difference in time to reach a tumor volume between the control and treatment group. This value can be represented as the growth delay (in days) between treated and control (tt−tc) (44).
# Tumor growth and hIgG levels were analyzed in terms of treatment group means and standard error. Student's t-test was applied to determine the statistical significance of differences between treatment groups. Minimal significance level was P<0.05.
# [3] = in vitro; settings: human
# Text: (§1) The human myeloma cell line RPMI8226 was obtained from American Type Culture Collection (Rockville, Md.). The MM1S myeloma cell line was provided by Dr. Steven Rosen (Northwestern University, Chicago, Ill.). Normal peripheral blood mononuclear cells (PBMCs) were isolated by Histopaque® density gradient centrifugation, according to the manufacturer's protocol (Sigma-Aldrich, St. Louis, Mo.). Myeloma cell lines and PBMCs were maintained in RPMI 1640 (Omega Scientific, Tarzana, Calif.) supplemented with 10% fetal bovine serum, 2 mM L-glutamine, 100 IU/mL penicillin, 100 μg/mL streptomycin, and essential amino acids in an atmosphere of 5% carbon dioxide (CO2) at 37° C.
# (§2) Cells were seeded at 10^5 cells/100 μL/well in 96-well plates and incubated for 24 hours. RPMI8226 and MM1S cells were cultured in the presence of vehicle, COMPOUND 1, bortezomib, melphalan, COMPOUND 1+bortezomib, or COMPOUND 1+melphalan for 48 hours. After the incubation period, cell viability was quantified using the CellTiter 96® AQueous Non-Radioactive Cell Proliferation Assay (Promega, Madison, Wis.). Each well was treated with MTS (3-(4,5-dimethylthiazol-2-yl)-5-(3-carboxymethoxyphenyl)-2-(4-sulfophenyl)-2H-tetrazolium, inner salt) for 1 to 4 hours, after which absorbance was recorded at 490 nm. The quantity of formazan product as measured by absorbance at 490 nm is directly proportional to the number of living cells in culture.
# (§3) In order for therapy with two or more PIs to be feasible in vivo, the combination must spare non-neoplastic cells. […] A healthy donor's PBMCs were cultured for 48 hours in the presence of COMPOUND 1 alone, bortezomib alone, or both agents together, and cell viability was quantified by MTS assay.
# [4] = test system: normal peripheral blood mononuclear cells (PBMCs); assay: in vitro
# Text: as §1, §2, §3
# [5] = bortezomib 0.5 mg/kg IV, COMPOUND 1 1 mg/kg IV, alone or together
structure (smiles),measurement,setting,value
"CC(C)C[C@H](NC(=O)[C@@H](NC(=O)c1cccc(-c2ccccc2)n1)[C@@H](C)O)B(O)O [COMPOUND 1, [(1R)-1-[[(2S,3R)-3-hydroxy-2-[6-phenyl-pyridine-2-carbonyl)amino]-1-oxobutyl]amino]-3-methylbutylboronic acid]",inhibition of viability,[1]; COMPOUND 1 0.1-10 nM,concentration-dependent inhibition of viability
same,cytotoxicity at 0.00175 µM,"[1]; Homo sapiens, MM1.S, single-agent COMPOUND 1 1.75 nM, read-out: inhibition of cell viability",~16%
same,"tumors, times smaller than control-treated mice","[2]; 3 mg/kg IV or 10 mg/kg oral twice weekly, after 14 days, P=0.0008 / P=0.0028",8 to 12 times
same,days to tumor progression,[2]; [5],35 days
same,survival longer than vehicle-treated mice,[2]; [5],20%
same,tumor growth vs vehicle,"[2]; bortezomib 0.5 mg/kg IV, COMPOUND 1 1 mg/kg IV, alone or together, combination after 21 days P=0.0014",only modestly suppresses
same,drug-related / toxicity-related deaths,"[2]; by day 70, bortezomib 0.5 mg/kg IV, COMPOUND 1 1 mg/kg IV, alone or together",one death each
same,tumor volume,"[2]; mouse, in vivo",partially inhibited
same,body weight,"[2]; mouse, in vivo, po",without significant loss of body weight
same,tumor volume inhibition,"[2]; oral 5 mg/kg daily or 10 mg/kg twice weekly, day 35, P=0.0327 / P=0.0018",significant tumor volume inhibition
same,delay of tumor volume growth to 300 mm^3,[2]; day 31 control vs day 42,11 days
same,delay of tumor volume growth to 300 mm^3,[2]; vs no treatment,35.5%
same,delay of tumor volume at 220 mm^3,[2]; day 28 control vs day 42,14 days
same,Percentage T/C,[2]; day 35,21.6%
same,Percentage T/C,[2]; day 42,27.5%
same,Percentage T/C,[2]; day 49,26.1%
same,Percentage T/C,[2]; day 56,30.5%
same,delay of tumor volume at 220 mm^3,[2]; vs untreated control,50%
same,"viability at 48 h, 0.009 µM",[3],~75%
same,cytotoxic effects on normal PBMCs,[4],negligible cytotoxic effects
